Laboratory results published in patent publication US4863925A, “Cyclohexanedione derivative for hepatic disorders and a process for producing the same” (Nihon Nohyaku Co., Ltd., priority 1986, dated 1989).

Test system: hepatic disorder caused by carbon tetrachloride
Experiment: Effect of suppressing hepatic disorder caused by carbon tetrachloride (Test Example 1)
Format: in vivo, mice (dd-strain, male)
Parameters: key to Liver injury index: 0 = healthy, 2 = slight, 4 = evident injury, 6 = serious injury
Conditions: 30 mg/kg p.o., 6 h before CCl4 0.05 ml/kg p.o., 24 h after CCl4, mean of five mice; for Liver injury index: 0 healthy, 2 slightly affected, 4 evidently observed injury, 6 serious injury; for P-GPT (plasma glutamic pyruvic transaminase activity): Reitman-Frankel, 2,000 or higher calculated as 2,000
Protocol: Effect of suppressing hepatic disorder caused by carbon tetrachloride. […] The animals were sacrificed 24 hours after the administration of carbon tetrachloride, and the extent of liver injury was examined. On the other hand, blood was collected from the animal at the time of the sacrifice, and centrifuged to obtain plasma. The plasma glutamic pyruvic transminase (GPT) activity was determined according to the method of Reitman-Frankel. The activity was expressed in terms of Karmen Units (K.U.). The conditions of the liver were expressed in terms of liver injury index as follows. |Liver injury index | Condition of liver |0 Healthy liver |2 Slightly affected |4 Evidently observed injury |6 Serious injury Mice were used in groups of five of test were represented by the mean value. When the GPT activity was 2,000 units or higher, or further determination was made, the activity was calculated as 2,000 units for reasons of convenience.

CCN1CCN(CC)C2SC(=C3C(=O)CCCC3=O)SC21 (centres unmarked) [Compound No. 2]
Liver injury index: 0.4
P-GPT (plasma glutamic pyruvic transaminase activity): 15 K.U.

CN1CCN(C)C2SC(=C3C(=O)CC(C)(C)CC3=O)SC21 (centres unmarked) [Compound No. 4]
Liver injury index: 0
P-GPT (plasma glutamic pyruvic transaminase activity): 11 K.U.

CCCN1CCN(CCC)C2SC(=C3C(=O)CC(C)(C)CC3=O)SC21 (centres unmarked) [Compound No. 7]
Liver injury index: 0
P-GPT (plasma glutamic pyruvic transaminase activity): 16 K.U.

Cc1ccc(C2CC(=O)C(=C3SC4C(S3)N(C)CCN4C)C(=O)C2)cc1 (centres unmarked) [Compound No. 43]
Liver injury index: 0.2
P-GPT (plasma glutamic pyruvic transaminase activity): 24 K.U.

COc1ccc(C2CC(=O)C(=C3SC4NCCNC4S3)C(=O)C2)cc1 (centres unmarked) [Compound No. 53]
Liver injury index: 0.1
P-GPT (plasma glutamic pyruvic transaminase activity): 13 K.U.

CN1CCN(C)C2SC(=C3C(=O)CC(c4ccco4)CC3=O)SC21 (centres unmarked) [Compound No. 79]
Liver injury index: 0
P-GPT (plasma glutamic pyruvic transaminase activity): 30 K.U.

CN1CCN(C)C2SC(=C3C(=O)CCCC3=O)SC21 (centres unmarked) [compound 1]
Liver injury index: 0.2
P-GPT (plasma glutamic pyruvic transaminase activity): 14 K.U.

CCN1CCN(CC)C2SC(=C3C(=O)CC(C)(C)CC3=O)SC21 (centres unmarked) [compound 6]
Liver injury index: 0
P-GPT (plasma glutamic pyruvic transaminase activity): 19 K.U.

CCCN1CCN(CCC)C2SC(=C3C(=O)CCCC3=O)SC21 (centres unmarked) [compound 10]
Liver injury index: 0
P-GPT (plasma glutamic pyruvic transaminase activity): 41 K.U.

CN1CCN(C)C2(C)SC(=C3C(=O)CCCC3=O)SC12 (centres unmarked) [compound 11]
Liver injury index: 0.5
P-GPT (plasma glutamic pyruvic transaminase activity): 16 K.U.

CN1CCN(C)C2(C)SC(=C3C(=O)CC(C)(C)CC3=O)SC12 (centres unmarked) [compound 12, 2-[1,2,5-trimethyl-2,5-diaza-7,9-dithiabicyclo(4.3.0)-nonane-8-ylidene]-5,5-dimethyl-1,3-cyclohexanedione]
Liver injury index: 0.4
P-GPT (plasma glutamic pyruvic transaminase activity): 33 K.U.

CC1CNC2SC(=C3C(=O)CC(C)(C)CC3=O)SC2N1 (centres unmarked) [compound 14, 2-[3-methyl-2,5-diaza-7,9-dithiabicyclo-(4.3.0)-nonane-8-ylidene]-5,5-dimethyl-1,3-cyclohexanedione]
Liver injury index: 0.4
P-GPT (plasma glutamic pyruvic transaminase activity): 18 K.U.

CC1CC(=O)C(=C2SC3C(S2)N(C)CCN3C)C(=O)C1 (centres unmarked) [compound 18]
Liver injury index: 1.2
P-GPT (plasma glutamic pyruvic transaminase activity): 22 K.U.

CCC(C)C1CC(=O)C(=C2SC3C(S2)N(C)CCN3C)C(=O)C1 (centres unmarked) [compound 21]
Liver injury index: 0.1
P-GPT (plasma glutamic pyruvic transaminase activity): 23 K.U.

CCC1CCC(=O)C(=C2SC3C(S2)N(C)CCN3C)C1=O (centres unmarked) [compound 25]
Liver injury index: 0.8
P-GPT (plasma glutamic pyruvic transaminase activity): 15 K.U.

CN1CCN(C)C2SC(=C3C(=O)CC(c4ccccc4)CC3=O)SC21 (centres unmarked) [compound 26, 2-[2,5-dimethyl-2,5-diaza-7,9-dithiabicyclo(4,3, 0)-nonane-8-ylidene]-5-phenyl-1,3-cyclohexanedione]
Liver injury index: 0
P-GPT (plasma glutamic pyruvic transaminase activity): 12 K.U.

CCCN1CCN(CCC)C2SC(=C3C(=O)CC(c4ccccc4)CC3=O)SC21 (centres unmarked) [compound 28]
Liver injury index: 0.2
P-GPT (plasma glutamic pyruvic transaminase activity): 39 K.U.

CN1CCN(C)C2SC(=C3C(=O)CC(c4ccccc4Cl)CC3=O)SC21 (centres unmarked) [compound 32]
Liver injury index: 0.3
P-GPT (plasma glutamic pyruvic transaminase activity): 22 K.U.

CN1CCN(C)C2SC(=C3C(=O)CC(c4ccc(F)cc4)CC3=O)SC21 (centres unmarked) [compound 36]
Liver injury index: 1.5
P-GPT (plasma glutamic pyruvic transaminase activity): 268 K.U.

Cc1ccccc1C1CC(=O)C(=C2SC3C(S2)N(C)CCN3C)C(=O)C1 (centres unmarked) [compound 41]
Liver injury index: 0.4
P-GPT (plasma glutamic pyruvic transaminase activity): 213 K.U.

Cc1cccc(C2CC(=O)C(=C3SC4C(S3)N(C)CCN4C)C(=O)C2)c1 (centres unmarked) [compound 42]
Liver injury index: 0
P-GPT (plasma glutamic pyruvic transaminase activity): 14 K.U.

Cc1ccc(C2CC(=O)C(=C3SC4N(C)CCN(C)C4(C)S3)C(=O)C2)cc1 (centres unmarked) [compound 47]
Liver injury index: 0
P-GPT (plasma glutamic pyruvic transaminase activity): 24 K.U.

CCc1ccc(C2CC(=O)C(=C3SC4C(S3)N(C)CCN4C)C(=O)C2)cc1 (centres unmarked) [compound 48]
Liver injury index: 0.3
P-GPT (plasma glutamic pyruvic transaminase activity): 18 K.U.

COc1ccccc1C1CC(=O)C(=C2SC3C(S2)N(C)CCN3C)C(=O)C1 (centres unmarked) [compound 51]
Liver injury index: 0
P-GPT (plasma glutamic pyruvic transaminase activity): 81 K.U.

COc1cccc(C2CC(=O)C(=C3SC4C(S3)N(C)CCN4C)C(=O)C2)c1 (centres unmarked) [compound 52]
Liver injury index: 0.1
P-GPT (plasma glutamic pyruvic transaminase activity): 14 K.U.

CCN1CCN(CC)C2SC(=C3C(=O)CC(c4ccc(OC)cc4)CC3=O)SC21 (centres unmarked) [compound 56]
Liver injury index: 2.5
P-GPT (plasma glutamic pyruvic transaminase activity): 50 K.U.

CCCN1CCN(CCC)C2SC(=C3C(=O)CC(c4ccc(OC)cc4)CC3=O)SC21 (centres unmarked) [compound 57]
Liver injury index: 0.2
P-GPT (plasma glutamic pyruvic transaminase activity): 142 K.U.

COc1ccc(C2CC(=O)C(=C3SC4N(C)CCN(C)C4(C)S3)C(=O)C2)cc1 (centres unmarked) [compound 59]
Liver injury index: 0.1
P-GPT (plasma glutamic pyruvic transaminase activity): 16 K.U.

CCOc1ccc(C2CC(=O)C(=C3SC4C(S3)N(C)CCN4C)C(=O)C2)cc1 (centres unmarked) [compound 60]
Liver injury index: 0.1
P-GPT (plasma glutamic pyruvic transaminase activity): 26 K.U.

CCOc1ccc(C2CC(=O)C(=C3SC4C(S3)N(CC)CCN4CC)C(=O)C2)cc1 (centres unmarked) [compound 61]
Liver injury index: 1.5
P-GPT (plasma glutamic pyruvic transaminase activity): 494 K.U.

CCOc1ccc(C2CC(=O)C(=C3SC4N(C)CCN(C)C4(C)S3)C(=O)C2)cc1 (centres unmarked) [compound 63]
Liver injury index: 0
P-GPT (plasma glutamic pyruvic transaminase activity): 15 K.U.

COc1ccc(C2CC(=O)C(=C3SC4C(S3)N(C)CCN4C)C(=O)C2)cc1OC (centres unmarked) [compound 65]
Liver injury index: 1.6
P-GPT (plasma glutamic pyruvic transaminase activity): 347 K.U.

Cc1ccc(C2CC(=O)C(=C3SC4NCC(C)NC4S3)C(=O)C2)cc1 (centres unmarked) [compound 78]
Liver injury index: 0.2
P-GPT (plasma glutamic pyruvic transaminase activity): 18 K.U.

CN1CCN(C)C2SC(=C3C(=O)CC(C4CCCCC4)CC3=O)SC21 (centres unmarked) [compound 80]
Liver injury index: 1.0
P-GPT (plasma glutamic pyruvic transaminase activity): 405 K.U.

CN1CCN(C)C2SC(=C3C(=O)CC(c4cccs4)CC3=O)SC21 (centres unmarked) [compound 82, 2-[2,5-dimethyl-2,5-diaza-7,9-dithiabicyclo-(4.3.0)-nonane-8-ylidene]-5-(2-thienyl)-1,3-cyclo hexanedione]
Liver injury index: 0.3
P-GPT (plasma glutamic pyruvic transaminase activity): 16 K.U.

CN1CCN(C)C2(C)SC(=C3C(=O)CC(c4ccco4)CC3=O)SC12 (centres unmarked) [compound 90]
Liver injury index: 0
P-GPT (plasma glutamic pyruvic transaminase activity): 15 K.U.

COc1ccc(C2CC(=O)C(=C3SC4NCCNC4(C)S3)C(=O)C2)cc1 (centres unmarked) [compound 92]
Liver injury index: 0.4
P-GPT (plasma glutamic pyruvic transaminase activity): 15 K.U.

CCOC(=O)C1C(=O)C(=C2SC3C(S2)N(C)CCN3C)C(=O)CC1c1ccc(C)cc1 (centres unmarked) [compound 102]
Liver injury index: 1.5
P-GPT (plasma glutamic pyruvic transaminase activity): 319 K.U.

CCOC(=O)C1C(=O)C(=C2SC3C(S2)N(C)CCN3C)C(=O)CC1c1ccc(OC)cc1 (centres unmarked) [compound 103]
Liver injury index: 1.0
P-GPT (plasma glutamic pyruvic transaminase activity): 18 K.U.

CCOC(=O)C1C(=O)C(=C2SC3C(S2)N(C)CCN3C)C(=O)CC1c1ccccc1Cl (centres unmarked) [compound 104]
Liver injury index: 1.7
P-GPT (plasma glutamic pyruvic transaminase activity): 345 K.U.

CN1CCN(C)C2(C)SC(=C3C(=O)CC(c4cccs4)CC3=O)SC12 (centres unmarked) [compound 105]
Liver injury index: 0
P-GPT (plasma glutamic pyruvic transaminase activity): 15 K.U.

C=CCN1CCN(CC=C)C2(C)SC(=C3C(=O)CC(C)(C)CC3=O)SC12 (centres unmarked) [compound 106]
Liver injury index: 1.2
P-GPT (plasma glutamic pyruvic transaminase activity): 242 K.U.

CN1CCNC2SC(=C3C(=O)CC(c4ccco4)CC3=O)SC21 (centres unmarked) [compound 108]
Liver injury index: 1.0
P-GPT (plasma glutamic pyruvic transaminase activity): 24 K.U.

CN1CCNC2SC(=C3C(=O)CC(c4cccs4)CC3=O)SC21 (centres unmarked) [compound 109]
Liver injury index: 0
P-GPT (plasma glutamic pyruvic transaminase activity): 17 K.U.

CC1(C)CC(=O)C(=C2SC3NCCNC3(C)S2)C(=O)C1 (centres unmarked) [compound 111]
Liver injury index: 1.0
P-GPT (plasma glutamic pyruvic transaminase activity): 14 K.U.

CCCN1CCN(CCC)C2SC(=C3C(=O)CC(c4ccccc4)C(C(=O)OCC)C3=O)SC21 (centres unmarked) [compound 114]
Liver injury index: 2.2
P-GPT (plasma glutamic pyruvic transaminase activity): 26 K.U.

CCOC(=O)C1C(=O)C(=C2SC3C(S2)N(C)CCN3C)C(=O)CC1c1ccc(OCC)cc1 (centres unmarked) [compound 115]
Liver injury index: 0
P-GPT (plasma glutamic pyruvic transaminase activity): 39 K.U.

CN1CCNC2SC(=C3C(=O)CC(C)(C)CC3=O)SC21.Cl.Cl (centres unmarked) [compound 118, 2-[2-methyl-2,5-diaza-7,9-dithiabicyclo-(4,3,0)-nonane-8-ylidene]-5,5-dimethyl-1,3-cyclohexanedione dihydrochloride salt]
Liver injury index: 0
P-GPT (plasma glutamic pyruvic transaminase activity): 32 K.U.

CN1CCNC2SC(=C3C(=O)CC(c4ccccc4Cl)CC3=O)SC21 (centres unmarked) [compound 121]
Liver injury index: 0
P-GPT (plasma glutamic pyruvic transaminase activity): 20 K.U.
